Assay results: PubChem BioAssay AID248 (DTP/NCI, 2004)
Several values for one entry are separate records, joined by “and”; a condition that tells them apart may be missing. Equal entries are not always repeated. Toxic doses and inconclusive results are not listed. Cut-off read from the data, not from the text of the source: active = T/C of 150% or more; inactive = T/C below 125%.

System: L1210 leukemia ip in BDF1 mice, survival T/C
Assay: NCI In Vivo Anticancer Drug Screen. Data for tumor model L1210 Leukemia (intraperitoneal) in B6D2F1 (BDF1) mice
Details: endpoint: mean survival time, higher = longer survival
Summary of the method: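 Tumor cells were implanted, animals were treated, and survival was followed. The result divides the treated measurement by the vehicle-control measurement.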

[1] = dose: 100.0 mg/kg/injection, schedule: Q01DX009 (ip), vehicle: Klucel (hydroxypropylcellulose) (HPC)
[2] = dose: 100.0 mg/kg/injection, schedule: Q04DX002 (ip), vehicle: Klucel (hydroxypropylcellulose) (HPC)
[3] = dose: 200.0 mg/kg/injection, schedule: Q01DX009 (ip), vehicle: Klucel (hydroxypropylcellulose) (HPC)
[4] = dose: 200.0 mg/kg/injection, schedule: Q04DX002 (ip), vehicle: Klucel (hydroxypropylcellulose) (HPC)
[5] = dose: 400.0 mg/kg/injection, schedule: Q01DX009 (ip), vehicle: Klucel (hydroxypropylcellulose) (HPC)
[6] = dose: 400.0 mg/kg/injection, schedule: Q04DX002 (ip), vehicle: Klucel (hydroxypropylcellulose) (HPC)

Measured: T/C

O=C(Nc1ccc(Nc2ccccc2)cc1)Nc1cccc2ccccc12
inactive: dose: 100.0 mg/kg/injection, schedule: Q01DX001 (ip), vehicle: Klucel (hydroxypropylcellulose) (HPC) 97 % of control | [1] 100 % of control | dose: 100.0 mg/kg/injection, schedule: Q01DX009 (ip), vehicle: saline 100 % of control | [2] 98 % of control and 105 % of control | dose: 100.0 mg/kg/injection, schedule: Q04DX003 (ip), vehicle: Klucel (hydroxypropylcellulose) (HPC) 97 % of control | dose: 200.0 mg/kg/injection, schedule: Q01DX001 (ip), vehicle: Klucel (hydroxypropylcellulose) (HPC) 92 % of control | [3] 90 % of control | dose: 200.0 mg/kg/injection, schedule: Q01DX009 (ip), vehicle: saline 100 % of control | [4] 93 % of control and 94 % of control | dose: 200.0 mg/kg/injection, schedule: Q04DX003 (ip), vehicle: Klucel (hydroxypropylcellulose) (HPC) 92 % of control | dose: 400.0 mg/kg/injection, schedule: Q01DX001 (ip), vehicle: Klucel (hydroxypropylcellulose) (HPC) 95 % of control | [5] 100 % of control | dose: 400.0 mg/kg/injection, schedule: Q01DX009 (ip), vehicle: saline 88 % of control | [6] 98 % of control and 102 % of control

Clc1ccc(-c2nn[nH]n2)cc1
inactive: [2] 96 % of control | [4] 93 % of control

O=C(O)c1nccc2c([N+](=O)[O-])cccc12
inactive: dose: 100.0 mg/kg/injection, schedule: Q04DX003 (ip), vehicle: saline 97 % of control | dose: 200.0 mg/kg/injection, schedule: Q04DX003 (ip), vehicle: saline 97 % of control | dose: 400.0 mg/kg/injection, schedule: Q04DX003 (ip), vehicle: saline 92 % of control

Cc1[nH]c(=O)[nH]c(=O)c1CCS
inactive: dose: 100.0 mg/kg/injection, schedule: Q01DX001 (ip), vehicle: saline 94 % of control | dose: 200.0 mg/kg/injection, schedule: Q01DX001 (ip), vehicle: saline 95 % of control | dose: 400.0 mg/kg/injection, schedule: Q01DX001 (ip), vehicle: saline 101 % of control

CN(O)C(=O)OC(C)(C)C
inactive: dose: 100.0 mg/kg/injection, schedule: Q01DX001 (ip), vehicle: other 108 % of control | dose: 200.0 mg/kg/injection, schedule: Q01DX001 (ip), vehicle: other 108 % of control | dose: 400.0 mg/kg/injection, schedule: Q01DX001 (ip), vehicle: other 114 % of control

CCC1(C)CCC2C(=CCC3C(C)(C(=O)O)CCCC23C)C1 (stereo unspecified)
inactive: dose: 100.0 mg/kg/injection, schedule: Q01DX009 (ip), vehicle: saline with Tween-80 91 % of control | dose: 200.0 mg/kg/injection, schedule: Q01DX009 (ip), vehicle: saline with Tween-80 93 % of control | dose: 400.0 mg/kg/injection, schedule: Q01DX009 (ip), vehicle: saline with Tween-80 86 % of control

O=C(COc1cc(Cl)c(Cl)cc1Cl)Nc1ccccc1Br
inactive: [2] 95 % of control | [4] 98 % of control | [6] 106 % of control

O=C(Cl)COc1cccc2ccccc12
inactive: [1] 93 % of control | [3] 98 % of control | [5] 101 % of control

NC(=S)N/N=C/c1ccc(F)cc1
inactive: dose: 60.0 mg/kg/injection, schedule: Q01DX Z (oral), vehicle: methylcellulose (MC) 90 % of control | dose: 120.0 mg/kg/injection, schedule: Q01DX Z (oral), vehicle: methylcellulose (MC) 87 % of control

ClCc1c(Cl)cccc1Cl
inactive: [2] 97 % of control | [4] 97 % of control | [6] 97 % of control

O=C(Nc1ccccc1)Nc1ccccc1Cl
inactive: [2] 110 % of control | [4] 93 % of control | [6] 107 % of control

N#CCOC(=O)c1ccc[nH]1
inactive: dose: 10.0 mg/kg/injection, schedule: Q01DX001 (ip), vehicle: acetone 101 % of control | dose: 20.0 mg/kg/injection, schedule: Q01DX001 (ip), vehicle: acetone 100 % of control | dose: 40.0 mg/kg/injection, schedule: Q01DX001 (ip), vehicle: acetone 97 % of control

Cc1cccc(C)c1OC(=O)Nc1ccccc1
inactive: [2] 101 % of control | [4] 97 % of control | [6] 101 % of control

O=C(O)CC(C(=O)O)(c1c[nH]c2ccccc12)c1c[nH]c2ccccc12
inactive: dose: 75.0 mg/kg/injection, schedule: Q01DX001 (ip), vehicle: carboxymethylcellulose (CMC) 89 % of control | dose: 150.0 mg/kg/injection, schedule: Q01DX001 (ip), vehicle: carboxymethylcellulose (CMC) 93 % of control | dose: 300.0 mg/kg/injection, schedule: Q01DX001 (ip), vehicle: carboxymethylcellulose (CMC) 90 % of control
